Assay results reported in the supplement of paper PMC10307832.

How the values were obtained:
Test in all cases: relative viability (nuclei count vs DMSO), 5 days (fraction); higher = more cells survive
[1] = tested on: BEN
How it was run: (§1)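 Relative viability is defined as nuclei in treated wells over nuclei in vehicle wells. Duplicate plates were run and medians reported. Lung cancer cell lines in 1536-well plates were dosed by pin tool one day after seeding, with one drug or with a fixed anchor-drug dose plus five library-drug doses (not always all listed) in √10 steps, and nuclei were counted after 5 days.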

[2] = tested on: EKVX
How it was run: as §1

[3] = tested on: HARA
How it was run: as §1

[4] = tested on: HCC-366
How it was run: as §1

[5] = tested on: HCC-44
How it was run: as §1

[6] = tested on: HCC-827
How it was run: as §1

[7] = tested on: LC-2-ad
How it was run: as §1

[8] = tested on: LOU-NH91
How it was run: as §1

[9] = tested on: NCI-H1355
How it was run: as §1

[10] = tested on: NCI-H1437
How it was run: as §1

[11] = tested on: NCI-H1734
How it was run: as §1

[12] = tested on: NCI-H1792
How it was run: as §1

[13] = tested on: NCI-H2009
How it was run: as §1

[14] = tested on: NCI-H2087
How it was run: as §1

[15] = tested on: NCI-H2170
How it was run: as §1

[16] = tested on: NCI-H2228
How it was run: as §1

[17] = tested on: NCI-H2405
How it was run: as §1

[18] = tested on: NCI-H596
How it was run: as §1

[19] = tested on: NCI-H647
How it was run: as §1

[20] = tested on: NCI-H661
How it was run: as §1

[21] = tested on: SK-LU-1
How it was run: as §1

[22] = tested on: SK-MES-1
How it was run: as §1

Clc1ccc(Nc2nnc(Cc3ccncc3)c3ccccc23)cc1 [Vatalanib] + C[C@@H](Oc1cc(-c2cnn(C3CCNCC3)c2)cnc1N)c1c(Cl)ccc(F)c1Cl [Crizotinib] (partner 1 µM)
relative viability ([1]; first compound 0.04 µM): 1.03
relative viability ([1]; first compound 0.1265 µM): 0.764
relative viability ([1]; first compound 0.4 µM): 1.01
relative viability ([1]; first compound 1.265 µM): 0.858
relative viability ([1]; first compound 4 µM): 1.01
relative viability ([2]; first compound 0.04 µM): 0.993
relative viability ([2]; first compound 0.1265 µM): 0.9
relative viability ([2]; first compound 0.4 µM): 1.11
relative viability ([2]; first compound 1.265 µM): 1.02
relative viability ([2]; first compound 4 µM): 0.921
relative viability ([3]; first compound 0.04 µM): 0.99
relative viability ([3]; first compound 0.1265 µM): 0.956
relative viability ([3]; first compound 0.4 µM): 1.01
relative viability ([3]; first compound 1.265 µM): 1.07
relative viability ([3]; first compound 4 µM): 0.998
relative viability ([4]; first compound 0.04 µM): 0.545
relative viability ([4]; first compound 0.1265 µM): 0.383
relative viability ([4]; first compound 0.4 µM): 0.592
relative viability ([4]; first compound 1.265 µM): 0.487
relative viability ([4]; first compound 4 µM): 0.35
relative viability ([5]; first compound 0.04 µM): 0.836
relative viability ([5]; first compound 0.1265 µM): 0.842
relative viability ([5]; first compound 0.4 µM): 0.804
relative viability ([5]; first compound 1.265 µM): 0.735
relative viability ([5]; first compound 4 µM): 0.701
relative viability ([6]; first compound 0.04 µM): 0.845
relative viability ([6]; first compound 0.1265 µM): 0.936
relative viability ([6]; first compound 0.4 µM): 0.943
relative viability ([6]; first compound 1.265 µM): 0.894
relative viability ([6]; first compound 4 µM): 0.853
relative viability ([7]; first compound 0.04 µM): 0.515
relative viability ([7]; first compound 0.1265 µM): 0.436
relative viability ([7]; first compound 1.265 µM): 0.456
relative viability ([7]; first compound 4 µM): 0.458
relative viability ([8]; first compound 0.04 µM): 0.728
relative viability ([8]; first compound 0.1265 µM): 0.708
relative viability ([8]; first compound 0.4 µM): 0.674
relative viability ([8]; first compound 1.265 µM): 0.718
relative viability ([8]; first compound 4 µM): 0.726
relative viability ([9]; first compound 0.04 µM): 1.05
relative viability ([9]; first compound 0.1265 µM): 1.08
relative viability ([9]; first compound 0.4 µM): 1.13
relative viability ([9]; first compound 1.265 µM): 0.886
relative viability ([9]; first compound 4 µM): 0.953
relative viability ([10]; first compound 0.04 µM): 0.978
relative viability ([10]; first compound 0.1265 µM): 0.934
relative viability ([10]; first compound 0.4 µM): 1.02
relative viability ([10]; first compound 1.265 µM): 0.886
relative viability ([10]; first compound 4 µM): 0.958
relative viability ([11]; first compound 0.04 µM): 0.714
relative viability ([11]; first compound 0.1265 µM): 0.645
relative viability ([11]; first compound 0.4 µM): 0.796
relative viability ([11]; first compound 1.265 µM): 0.694
relative viability ([11]; first compound 4 µM): 0.57
relative viability ([12]; first compound 0.04 µM): 0.945
relative viability ([12]; first compound 0.1265 µM): 0.972
relative viability ([12]; first compound 0.4 µM): 0.921
relative viability ([12]; first compound 1.265 µM): 0.912
relative viability ([12]; first compound 4 µM): 0.98
relative viability ([13]; first compound 0.04 µM): 0.987
relative viability ([13]; first compound 0.1265 µM): 0.478
relative viability ([13]; first compound 0.4 µM): 1.12
relative viability ([13]; first compound 1.265 µM): 1
relative viability ([13]; first compound 4 µM): 0.977
relative viability ([14]; first compound 0.04 µM): 0.89
relative viability ([14]; first compound 0.1265 µM): 1.07
relative viability ([14]; first compound 0.4 µM): 0.828
relative viability ([14]; first compound 1.265 µM): 0.826
relative viability ([14]; first compound 4 µM): 0.89
relative viability ([15]; first compound 0.04 µM): 1.22
relative viability ([15]; first compound 0.1265 µM): 1.21
relative viability ([15]; first compound 0.4 µM): 1.18
relative viability ([15]; first compound 1.265 µM): 1.06
relative viability ([15]; first compound 4 µM): 1.04
relative viability ([16]; first compound 0.04 µM): 0.332
relative viability ([16]; first compound 0.1265 µM): 0.496
relative viability ([16]; first compound 0.4 µM): 0.499
relative viability ([16]; first compound 1.265 µM): 0.432
relative viability ([16]; first compound 4 µM): 0.496
relative viability ([17]; first compound 0.04 µM): 0.896
relative viability ([17]; first compound 0.1265 µM): 0.79
relative viability ([17]; first compound 0.4 µM): 0.932
relative viability ([17]; first compound 1.265 µM): 0.816
relative viability ([17]; first compound 4 µM): 0.82
relative viability ([18]; first compound 0.04 µM): 1.05
relative viability ([18]; first compound 0.1265 µM): 1.02
relative viability ([18]; first compound 0.4 µM): 0.884
relative viability ([18]; first compound 1.265 µM): 0.955
relative viability ([18]; first compound 4 µM): 1.16
relative viability ([19]; first compound 0.04 µM): 0.92
relative viability ([19]; first compound 0.1265 µM): 1.07
relative viability ([19]; first compound 0.4 µM): 1.31
relative viability ([19]; first compound 1.265 µM): 0.977
relative viability ([19]; first compound 4 µM): 0.918
relative viability ([20]; first compound 0.04 µM): 1.03
relative viability ([20]; first compound 0.4 µM): 0.986
relative viability ([20]; first compound 1.265 µM): 0.885
relative viability ([20]; first compound 4 µM): 0.872
relative viability ([21]; first compound 0.04 µM): 0.923
relative viability ([21]; first compound 0.1265 µM): 0.898
relative viability ([21]; first compound 0.4 µM): 1.02
relative viability ([21]; first compound 1.265 µM): 1.06
relative viability ([21]; first compound 4 µM): 0.696
relative viability ([22]; first compound 0.04 µM): 1.01
relative viability ([22]; first compound 0.1265 µM): 0.808
relative viability ([22]; first compound 0.4 µM): 1.14
relative viability ([22]; first compound 1.265 µM): 0.927
relative viability ([22]; first compound 4 µM): 0.925
